Key:
[1] = test system: rabbit PRP (plasma rich in platelets); assay: Platelet aggregation on rabbit PRP, agonist arachidonic acid sodium salt; assay type: cell-based; details: Oryctolagus cuniculus
Method: (§1) Male New Zealand rabbits, 2000-3000 g [Stefano Morini, S. Polo D'Enza, RE Italy], quarantined for 5 days prior beginning of the trial (anti-piatelet effect). Male Wistar rats, 250±20 g [IFFA CREDO, Italy] randomized, divided into groups of 5 animals each and fasted for 16 h prior to treatment (thromboanemia determination).
(§2) Blood was intracardially collected from rabbits, using as anticoagulant sodium citrate at a final concentration of 0.38% and centrifuged for 15′ at 150 g in order to obtain a plasma rich in platelets (PRP). PRP was used at a concentration of 3.5×10^8 platelet/ml. MED 15 and reference products were incubated with the PRP for 3′ at 37 C° prior to addition of the aggregating agent. Platelet aggregation induced by arachidonic acid, sodium salt [TAC (threshold aggregation concentration): 140 μm] and collagen (TAC: 28 μg/ml) was measured using an aggregometer (Chronolog model 500) according to the Born's method ([…]. Nature 1962; 194: 927-929) and was expressed as inhibition percentage with respect to the agonist mean response.

[2] = test system: rabbit PRP (plasma rich in platelets); assay: Platelet aggregation on rabbit PRP, agonist collagen; assay type: cell-based; details: Oryctolagus cuniculus
Method: as §1, §2

TXB2 plasma levels = assay: TXB2 (thromboxane) determination in rat; assay type: in vivo; details: for TXB2 ng/ml ± S.E. / inhibition at 100 mg/kg: 100 mg/kg per os, blood 3 h after treatment; for TXB2 ng/ml ± S.E.: controls 174.1 ± 42.6; for inhibition at 100 mg/kg: po, vs controls; for % inhibition of TXB2 plasma levels: kinetics
Method: as §1
The animals received per OS 100 mg/kg (1.5 ml/rat) MED 15 and (acetyl salicylic acid) suspended in 1% CMC, and controls received the vehicle only. […] Tromboxane content was determined in the serum thus obtained using a RIA kit [Amersham TRK780]. The results obtained can be evaluated with reference to the following tables and figures.

[3] = test system: indomethacin-induced small intestine inflammation; assay: Indomethacin-induced small intestine inflammation; assay type: in vivo, rat
Method: (§3) Male Wistar rats, 180±20g quarantined for at least 5days and fasted for 18 h prior to the beginning of the trial (on a grid to avoid coprophagy) with free access to water.
The animals were treated with indomethacin (7.5 mg/Kg by subcutaneous administration in NaHCO3 5%) at T=0 and T=+1 day.
MED 15 (100 mg/Kg per os in 1% CMC) was administered according to two different treatments:
Scheme no. 1: T=0, +1 and 2 days
Scheme no. 2: T=0, +1, +2, +5, +6, +7 days
24 h after the last administration the animals were killed by cervical dislocation; the small intestine (from the pylorus to the ileocecal valve), removed and opened lengthwise, was washed in physiological solution at pH 7.4 for damage evaluation.
Considered parameters are: […]
myeloperoxidase (MPO), neutrophil indicator; malondialdehyde (MDA), oxidative process indicator. data were evaluated by Student's t-test

[4] = test system: acetic acid-induced colitis; assay: Acetic acid-induced colitis; assay type: in vivo, rat; details: MED 15 100 mg/Kg per os at T-48 h, -24 h, -2 h; acetic acid controls 949±66
Method: as §3
Colitis was induced in animals by administration of 5% acetic acid (1.5 ml/rat) in the distal colon lumen with an 8 cm cannula at T=0.
MED 15 (100 mg/Kg per os) was administered at T−48 h, −24 h and −2 h.
24 h after colitis induction, animals were killed by cervical dislocation and the colon removed and washed in physiological solution at pH 7.4, was examined for damage evaluation.
(§4) Considered parameters are:
malondialdehyde (MDA), oxidative process indicator.
(§5) data were evaluated by Student's t-test

TNB-induced colitis = assay: TNB-induced colitis; assay type: in vivo, rat; details: MED 15 100 mg/Kg per os T=0, +1, +2, +3 days
Method: as §3
Colitis was induced in animals by administration of 15 mg TNB (trinitrobenzosulphonic acid) in 0.25 ml of 30% ethanol in the colon lumen and with an 8 cm cannula at T=0.
MED 15 (100 mg/Kg per os in 1% CMC) was administered to:
5 h after the last administration the animals were killed by cervical dislocation, the colon (8 cm distal portion) removed for damage evaluation.
as §4
myeloperoxidase (MPO), neutrophil indicator;
as §5

human ulcerative colitis = assay: Double-blind, controlled, randomized clinical trial in ulcerative colitis; assay type: in vivo; details: MED 15 1200 mg/day plus 5-aminosalicylic acid, 60 days, vs 5-ASA plus placebo
Method: A double-blind, controlled, randomized study was carried out in patients affected by two simultaneous pathologies: ulcerative colitis and osteoarticolar disease (osteoarthritis, rheumatoid arthritis, extra-articular rheumatism).
20 patients were divided into 2 homogeneous groups of 10 patients each (Group A and Group B):
Group A was treated with 5-aminosalicylic acid 1200 mg/day and placebo
Group B was treated with 5-aminosalicylic acid […] and MED 15 1200 mg/day
The following clinical evaluations were performed at the beginning of the study (T0), T15, T30, and T60 (end of therapy):
1) endoscopic examination of intestinal mucosa
2) annotation of symptomatology referred by the patients.
The severity of these parameters was expressed by a score as follows: […]

Question: With CC(=O)Oc1ccccc1C(=O)O [ASA, acetylsalicylic acid, reference compound] as the compound, how does the inhibition at 25 µM ([1]; 25.0 μM) read?
Answer: Its inhibition at 25 µM is 0%.

Question: And the inhibition at 50 µM ([1]; 50.0 μM)?
Answer: Its inhibition at 50 µM is 83.3 ± 16.7%.

Question: And the inhibition at 100 µM ([1]; 100.0 μM)?
Answer: Its inhibition at 100 µM is 100%.

Question: And the inhibition at 12.5 µM ([2]; 12.5 μM)?
Answer: Its inhibition at 12.5 µM is 18.4 ± 10.5%.

Question: And the inhibition at 25 µM ([2]; 25.0 μM)?
Answer: The inhibition at 25 µM was 33.7 ± 2.1%.

Question: What about the inhibition at 50 µM ([2]; 50.0 μM) of the same compound?
Answer: Its inhibition at 50 µM is 70.4 ± 14.9%.

Question: What about the inhibition at 100 µM ([2]; 100.0 μM) of the same compound?
Answer: The inhibition at 100 µM was 100%.

Question: And the “TXB2 ng/ml ± S.E.” value (TXB2 plasma levels)?
Answer: Its value is 2.9 ± 1.1 ng/mL.

Question: What about the inhibition at 100 mg/kg (TXB2 plasma levels) of the same compound?
Answer: Its inhibition at 100 mg/kg is 98.3%.

Question: How did the “reduction in the number of ulcers” value ([3]; scheme no. 1 (acute phase, T=0, +1 and 2 days), MED 15 100 mg/Kg per os, vs indomethacin controls) turn out when COc1ccccc1OC(=O)CNC(=O)Cc1ccc(C(=O)c2ccc(C)cc2)n1C [MED 15, 2-metoxyphenyl-1-methyl-5-p-methylbenzoyl-pirrol-2-acetamido acetate] was run?
Answer: The value was 44.3%.

Question: And the score ([3]; scheme no. 1, MED 15 100 mg/Kg per os, indomethacin controls 7.62±1.84)?
Answer: Its score is 4.63±2.73.

Question: And the “tissutal levels of MPO” value ([3]; scheme no. 1, after MED 15 treatment 100 mg/Kg per os)?
Answer: The value was “diminution”.

Question: And the “decrease of score value” ([3]; scheme no. 2 (prolonged), MED 15 100 mg/Kg per os)?
Answer: Its value is 58.4%.

Question: What about the “decrease in number of ulcers” value ([3]; scheme no. 2 (prolonged, T=0, +1, +2, +5, +6, +7 days), MED 15 100 mg/Kg per os) of the same compound?
Answer: Its value is 86.1%.

Question: And the malondialdehyde levels [4]?
Answer: Its malondialdehyde levels is 719 ± 60 nmol/g.

Question: What about the “colon walls weight, change compared to TNB control” value (TNB-induced colitis) of the same compound?
Answer: The value was −28.6%.

Question: And the “myeloperoxidase levels, change compared to TNB control” value (TNB-induced colitis)?
Answer: Its value is −33.1%.

Question: And the “score, change compared to TNB control” value (TNB-induced colitis)?
Answer: Its value is −35.2%.

Question: And the “effectiveness in ulcerative colitis (mucosal inflammation and symptomatology scores)” value (human ulcerative colitis)?
Answer: Its value is “more effective than 5-ASA”.

Question: What about the healing time (human ulcerative colitis) of the same compound?
Answer: The healing time was “dramatically reduced compared to 5-ASA”.

Question: What about the inhibition at 0.5 µM ([1]; 0.5 μM) of the same compound?
Answer: Its inhibition at 0.5 µM is 7.7%.

Question: What about the inhibition at 1.25 µM ([1]; 1.25 μM) of the same compound?
Answer: The inhibition at 1.25 µM was 100%.

Question: What about the inhibition at 2.5 µM ([1]; 2.5 μM) of the same compound?
Answer: The inhibition at 2.5 µM was 100%.

Question: And the inhibition at 5 µM ([1]; 5.0 μM)?
Answer: Its inhibition at 5 µM is 100%.

Question: What about the inhibition at 0.05 µM ([2]; 0.05 μM) of the same compound?
Answer: The inhibition at 0.05 µM was 0%.

Question: What about the inhibition at 0.1 µM ([2]; 0.10 μM) of the same compound?
Answer: The inhibition at 0.1 µM was 34.3%.

Question: And the inhibition at 0.39 µM ([2]; 0.39 μM)?
Answer: Its inhibition at 0.39 µM is 100%.

Question: And the “duration of the effect on TXB2 plasma levels” value (TXB2 plasma levels)?
Answer: Its value is 24 h.

Question: What about the “TXB2 ng/ml ± S.E.” value (TXB2 plasma levels) of the same compound?
Answer: Its value is 14.3 ± 1.3 ng/mL.

Question: And the “% inhibition of TXB2 plasma levels” value (TXB2 plasma levels; 0.75 h)?
Answer: The value was 93.2%.

Question: What about the “% inhibition of TXB2 plasma levels” value (TXB2 plasma levels; 1.5 h) of the same compound?
Answer: The value was 90.8%.

Question: And the “% inhibition of TXB2 plasma levels” value (TXB2 plasma levels; 3.0 h)?
Answer: Its value is 91.4%.

Question: What about the “% inhibition of TXB2 plasma levels” value (TXB2 plasma levels; 24.0 h) of the same compound?
Answer: The value was 49.2%.

Question: What about the inhibition at 100 mg/kg (TXB2 plasma levels) of the same compound?
Answer: Its inhibition at 100 mg/kg is 91.8%.
